Results published in ChEMBL document CHEMBL1201862, “PubChem BioAssay data set” (2004).
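Step 1: Grow cells in 96-well plates. Step 2: Expose to compound for 48 hours at 5 concentrations. Step 3: Interpolate endpoints linearly; if unreached, use highest concentration. The concentration for 50% growth inhibition is given as GI50.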 Calls of active or inactive are those of the source. Cut-off read from the data, not from the text of the source: active = GI50 up to about 1.1 µM and inactive = higher.

What was measured:
Test in all cases: inhibition of tumour cell growth, NCI panel, 48 h
NCI-H460 = test system: NCI-H460
SF-295 = test system: SF-295
HCT-15 = test system: HCT-15
SN12C = test system: SN12C
NCI-H23 = test system: NCI-H23
HCC 2998 = test system: HCC 2998
CCRF-CEM = test system: CCRF-CEM
RPMI-8226 = test system: RPMI-8226
A549 = test system: A549
IGROV-1 = test system: IGROV-1
A498 = test system: A498
SK-MEL-2 = test system: SK-MEL-2
UACC-257 = test system: UACC-257
NCI-H522 = test system: NCI-H522
CAKI-1 = test system: CAKI-1
SK-MEL-5 = test system: SK-MEL-5
BT-549 = test system: BT-549
SW-620 = test system: SW-620
DU-145 = test system: DU-145
PC-3 = test system: PC-3
M14 = test system: M14
SNB-75 = test system: SNB-75
SF-268 = test system: SF-268
Hs-578T = test system: Hs-578T
HOP-62 = test system: HOP-62
EKVX = test system: EKVX
RXF 393 = test system: RXF 393
Malme-3M = test system: Malme-3M
SR = test system: SR
SF-539 = test system: SF-539
HT-29 = test system: HT-29
OVCAR-5 = test system: OVCAR-5
HL-60 = test system: HL-60
OVCAR-8 = test system: OVCAR-8
MOLT-4 = test system: MOLT-4
SK-MEL-28 = test system: SK-MEL-28
OVCAR-4 = test system: OVCAR-4
HCT-116 = test system: HCT-116
COLO 205 = test system: COLO 205
LOX IMVI = test system: LOX IMVI
OVCAR-3 = test system: OVCAR-3
K562 = test system: K562
UO-31 = test system: UO-31
SK-OV-3 = test system: SK-OV-3
KM12 = test system: KM12
NCI-H226 = test system: NCI-H226
MDA-N = test system: MDA-N
SNB-19 = test system: SNB-19
MCF7 = test system: MCF7
MDA-MB-435 = test system: MDA-MB-435
NCI/ADR-RES = test system: NCI/ADR-RES
786-0 = test system: 786-0
HOP-92 = test system: HOP-92
ACHN = test system: ACHN
MDA-MB-231 = test system: MDA-MB-231
TK-10 = test system: TK-10
UACC-62 = test system: UACC-62
U-251 = test system: U-251

COc1cc(S(=O)(=O)Nc2ccc(-c3csc(N4C(=O)CSC4c4cccs4)n3)cc2)ccc1Cl (centres undefined)
GI50 (NCI-H460): 29.3 µM (inactive) | GI50 (SF-295): > 100 µM (inactive) | GI50 (HCT-15): 32.6 µM | GI50 (SN12C): 25.8 µM (inactive) | GI50 (NCI-H23): 31.3 µM (inactive) | GI50 (HCC 2998): 15.6 µM (inactive) | GI50 (CCRF-CEM): 4.98 µM (inactive) | GI50 (RPMI-8226): 8.67 µM (inactive) | GI50 (A549): 86.9 µM (inactive) | GI50 (IGROV-1): 27.1 µM (inactive) | GI50 (A498): 43.6 µM (inactive) | GI50 (SK-MEL-2): 20.5 µM (inactive) | GI50 (UACC-257): 20.3 µM (inactive) | GI50 (NCI-H522): 15.9 µM (inactive) | GI50 (CAKI-1): 79.8 µM (inactive) | GI50 (SK-MEL-5): 64 µM (inactive) | GI50 (BT-549): 23.6 µM (inactive) | GI50 (SW-620): 24.7 µM (inactive) | GI50 (DU-145): 22.1 µM (inactive) | GI50 (PC-3): 24.9 µM (inactive) | GI50 (M14): 46.9 µM (inactive) | GI50 (SNB-75): 20.2 µM (inactive) | GI50 (SF-268): 19.8 µM (inactive) | GI50 (Hs-578T): 30.3 µM (inactive) | GI50 (HOP-62): 42.7 µM (inactive) | GI50 (EKVX): 50.8 µM (inactive) | GI50 (RXF 393): 11.2 µM (inactive) | GI50 (Malme-3M): 27.9 µM (inactive) | GI50 (SR): 29.7 µM (inactive) | GI50 (SF-539): 25.7 µM (inactive) | GI50 (HT-29): 39.8 µM (inactive) | GI50 (OVCAR-5): > 100 µM (inactive) | GI50 (HL-60): 14.5 µM (inactive) | GI50 (OVCAR-8): 41.5 µM (inactive) | GI50 (MOLT-4): 8.67 µM (inactive) | GI50 (SK-MEL-28): 19.9 µM (inactive) | GI50 (OVCAR-4): 18.4 µM (inactive) | GI50 (HCT-116): 31.3 µM (inactive) | GI50 (COLO 205): 31.8 µM (inactive) | GI50 (LOX IMVI): 18.7 µM (inactive) | GI50 (OVCAR-3): 51.5 µM (inactive) | GI50 (K562): 22.6 µM (inactive) | GI50 (UO-31): 57.3 µM (inactive) | GI50 (SK-OV-3): 56.4 µM (inactive) | GI50 (KM12): 20.4 µM (inactive) | GI50 (NCI-H226): 27.9 µM (inactive) | GI50 (MDA-N): 29.4 µM (inactive) | GI50 (SNB-19): 33.3 µM (inactive) | GI50 (MCF7): 16.4 µM (inactive) | GI50 (MDA-MB-435): 29.5 µM (inactive) | GI50 (NCI/ADR-RES): > 100 µM (inactive) | GI50 (786-0): 28.4 µM (inactive) | GI50 (HOP-92): 23.7 µM (inactive) | GI50 (ACHN): > 100 µM (inactive)

COc1ccccc1/C=C/c1ccnc2ccccc12
GI50 (NCI-H460): 15.5 µM (inactive) | GI50 (SF-295): 14.2 µM (inactive) | GI50 (HCT-15): 12.3 µM | GI50 (MDA-MB-231): 16.1 µM (inactive) | GI50 (SN12C): 18.1 µM (inactive) | GI50 (NCI-H23): 13.6 µM (inactive) | GI50 (HCC 2998): 17.5 µM (inactive) | GI50 (CCRF-CEM): 14.2 µM (inactive) | GI50 (RPMI-8226): 8.49 µM (inactive) | GI50 (TK-10): 16.8 µM (inactive) | GI50 (UACC-62): 11.7 µM (inactive) | GI50 (A549): 14.5 µM (inactive) | GI50 (IGROV-1): 4.97 µM (inactive) | GI50 (A498): 15.4 µM (inactive) | GI50 (SK-MEL-2): 16.4 µM (inactive) | GI50 (UACC-257): 16 µM (inactive) | GI50 (CAKI-1): 14.6 µM (inactive) | GI50 (SK-MEL-5): 13.5 µM (inactive) | GI50 (BT-549): 10.9 µM (inactive) | GI50 (SW-620): 13.8 µM (inactive) | GI50 (DU-145): 16.4 µM (inactive) | GI50 (PC-3): 14.3 µM (inactive) | GI50 (U-251): 11.9 µM (inactive) | GI50 (M14): 16.2 µM (inactive) | GI50 (SNB-75): 3.37 µM (inactive) | GI50 (SF-268): 14.2 µM (inactive) | GI50 (Hs-578T): 14.7 µM (inactive) | GI50 (HOP-62): 16.1 µM (inactive) | GI50 (EKVX): 11 µM (inactive) | GI50 (Malme-3M): 11.7 µM (inactive) | GI50 (SR): 12.8 µM (inactive) | GI50 (SF-539): 14.6 µM (inactive) | GI50 (HT-29): 12.8 µM (inactive) | GI50 (OVCAR-5): 17.3 µM (inactive) | GI50 (HL-60): 7.64 µM (inactive) | GI50 (OVCAR-8): 15.4 µM (inactive) | GI50 (MOLT-4): 7.87 µM (inactive) | GI50 (SK-MEL-28): 17.4 µM (inactive) | GI50 (OVCAR-4): 12.8 µM (inactive) | GI50 (HCT-116): 13.6 µM (inactive) | GI50 (COLO 205): 17.1 µM (inactive) | GI50 (LOX IMVI): 16.3 µM (inactive) | GI50 (OVCAR-3): 13.8 µM (inactive) | GI50 (K562): 10.7 µM (inactive) | GI50 (SK-OV-3): 16 µM (inactive) | GI50 (KM12): 12.3 µM (inactive) | GI50 (NCI-H226): 15.8 µM (inactive) | GI50 (MDA-N): 11.6 µM (inactive) | GI50 (SNB-19): 14.3 µM (inactive) | GI50 (MCF7): 4.25 µM (inactive) | GI50 (MDA-MB-435): 7.16 µM (inactive) | GI50 (NCI/ADR-RES): 11.3 µM (inactive) | GI50 (786-0): 14.3 µM (inactive) | GI50 (HOP-92): 12.8 µM (inactive) | GI50 (ACHN): 16.4 µM (inactive)
